Data reported in the NIST ThermoML archive (doi:10.1021/je0601208).

Legend:
[1] = refractive index (Na D-line) (dimensionless); xn = mol fraction of the nth substance listed; conditions: 100.5 kPa, Liquid, Standard Abbe refractometry
[2] = xn = mol fraction of the nth substance listed

CCCC(=O)OCCC(C)C [3-methylbutyl butanoate] + CCO
Conditions	refractive index, 288.15 K	refractive index, 298.15 K	refractive index, 308.15 K	refractive index, 318.15 K	surface tension liquid-gas, 288.15 K [mN/m]	surface tension liquid-gas, 298.15 K [mN/m]	surface tension liquid-gas, 308.15 K [mN/m]	surface tension liquid-gas, 318.15 K [mN/m]
[1], x1 = 0.05	1.3703	1.36624	1.36195	1.3578	–	–	–	–
[1], x1 = 0.1	1.37602	1.37182	1.36747	1.36327	–	–	–	–
[1], x1 = 0.15	1.3808	1.37656	1.37218	1.36792	–	–	–	–
[1], x1 = 0.2	1.38488	1.38059	1.3762	1.3719	–	–	–	–
[1], x1 = 0.25	1.38839	1.38406	1.37967	1.37533	–	–	–	–
[1], x1 = 0.3	1.39145	1.38709	1.38268	1.37832	–	–	–	–
[1], x1 = 0.35	1.39415	1.38977	1.38535	1.38096	–	–	–	–
[1], x1 = 0.4	1.39656	1.39216	1.38773	1.38332	–	–	–	–
[1], x1 = 0.45	1.39871	1.39431	1.38987	1.38544	–	–	–	–
[1], x1 = 0.5	1.40065	1.39624	1.3918	1.38736	–	–	–	–
[1], x1 = 0.55	1.4024	1.39798	1.39354	1.3891	–	–	–	–
[1], x1 = 0.6	1.40399	1.39956	1.39513	1.39067	–	–	–	–
[1], x1 = 0.65	1.40543	1.401	1.39656	1.3921	–	–	–	–
[1], x1 = 0.7	1.40673	1.4023	1.39786	1.3934	–	–	–	–
[1], x1 = 0.75	1.40793	1.40349	1.39905	1.39459	–	–	–	–
[1], x1 = 0.8	1.40902	1.40458	1.40015	1.39569	–	–	–	–
[1], x1 = 0.85	1.41003	1.40559	1.40116	1.3967	–	–	–	–
[1], x1 = 0.9	1.41096	1.40652	1.4021	1.39763	–	–	–	–
[1], x1 = 0.95	1.41181	1.40737	1.40296	1.39849	–	–	–	–
[1], x1 = 1	1.41259	1.40815	1.40374	1.39927	–	–	–	–
[2], x1 = 0.05	–	–	–	–	23.3	22.6	21.8	20.9
[2], x1 = 0.1	–	–	–	–	23.6	22.8	22	21.1
[2], x1 = 0.15	–	–	–	–	23.8	23	22.2	21.3
[2], x1 = 0.2	–	–	–	–	24	23.1	22.4	21.5
[2], x1 = 0.25	–	–	–	–	24.1	23.3	22.5	21.6
[2], x1 = 0.3	–	–	–	–	24.3	23.4	22.6	21.7
[2], x1 = 0.35	–	–	–	–	24.4	23.5	22.7	21.8
[2], x1 = 0.4	–	–	–	–	24.5	23.6	22.8	21.9
[2], x1 = 0.45	–	–	–	–	24.6	23.7	22.9	22
[2], x1 = 0.5	–	–	–	–	24.7	23.8	23	22.1
[2], x1 = 0.55	–	–	–	–	24.8	23.9	23.1	22.2
[2], x1 = 0.6	–	–	–	–	24.9	23.9	23.2	22.3
[2], x1 = 0.65	–	–	–	–	25	24	23.3	22.4
[2], x1 = 0.7	–	–	–	–	25.1	24.1	23.4	22.5
[2], x1 = 0.75	–	–	–	–	25.2	24.2	23.5	22.6
[2], x1 = 0.8	–	–	–	–	25.3	24.3	23.6	22.7
[2], x1 = 0.85	–	–	–	–	25.4	24.4	23.7	22.8
[2], x1 = 0.9	–	–	–	–	25.5	24.5	23.8	22.9
[2], x1 = 0.95	–	–	–	–	25.6	24.6	23.9	23
[2], x1 = 1	–	–	–	–	25.7	24.7	24	23.1
